The GI50 is the concentration that inhibits growth by half.

The source of these data is ChEMBL document CHEMBL1201862, “PubChem BioAssay data set” (2004).

Some test systems named below: ACHN; CAKI-1; HCC 2998; HOP-62; HOP-92; IGROV-1; K562; LOX IMVI; MOLT-4; NCI-H23; NCI-H460; RPMI-8226; SK-MEL-28; SK-MEL-2; SNB-19; SNB-75; SW-620; TK-10; U-251; UO-31.
Test in all cases: DTP human tumour cell line panel, 48 h

Several values for one entry are separate records, joined by “and”; a condition that tells them apart may be missing. Equal entries are not always repeated.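 Compound exposure: 48 hours, 5 concentrations, 96-well plates. GI50 marks 50% less growth.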 Activity calls are given as the source filed them. No stated cut-off is given here; in the data, active = GI50 up to about 1.1 µM and inactive = higher.

In the case of `O=Cc1cc(O)ccc1Br`, the GI50 in the experiment with ACHN is 19.8 µM (inactive); with CAKI-1 it was 20 µM (inactive); in the experiment with HCC 2998, 11.8 µM (inactive); in the experiment on HOP-62, 9.71 µM (inactive); in the experiment on HOP-92, 19 µM (inactive); in the experiment with IGROV-1 it was 28.1 µM (inactive). Also, the GI50 in the experiment on K562 was 2.86 µM (inactive); in the experiment on LOX IMVI, 5.46 µM (inactive); with MOLT-4, 4.15 µM (inactive); with NCI-H23, 21.7 µM (inactive); with NCI-H460 it was 19.7 µM (inactive); with RPMI-8226, 2.81 µM (inactive). In addition, the GI50 is 15 µM (inactive) in the experiment with SK-MEL-28; 44.4 µM (inactive) with SK-MEL-2; 12.5 µM (inactive) with SNB-19; 14.4 µM (inactive) with SNB-75; 4.78 µM (inactive) with SW-620; 11.3 µM (inactive) in the experiment with TK-10. For the same compound, the GI50 with U-251 was 3.74 µM (inactive); in the experiment with UO-31 it was 19.5 µM (inactive).

Consider `CC1OC1C(=O)P(=O)(O)O` (stereo unspecified), for which the GI50 in the experiment with ACHN, with CAKI-1, in the experiment with HCC 2998, in the experiment on HOP-62, in the experiment on HOP-92 and in the experiment with IGROV-1 was > 100 µM (inactive) each time. For the same compound, the GI50 in the experiment with K562, in the experiment on LOX IMVI, in the experiment with MOLT-4, in the experiment with NCI-H23, with NCI-H460 and in the experiment on RPMI-8226 was > 100 µM (inactive) each time. The GI50 was > 100 µM (inactive) with SK-MEL-28; > 100 µM (inactive) in the experiment on SK-MEL-2; > 100 µM (inactive) in the experiment with SNB-19; 57.9 µM (inactive) in the experiment with SNB-75; > 100 µM (inactive) in the experiment with SW-620; > 100 µM (inactive) in the experiment with TK-10. Further, the GI50 in the experiment with U-251 and in the experiment on UO-31 was > 100 µM (inactive) throughout.

`COc1nc2c(N3CCCC3)nc(N3CCNCC3)nc2nc1NCc1ccccc1`: the GI50 with ACHN is 1.98 µM (inactive); with CAKI-1, 2.38 µM (inactive); in the experiment on HCC 2998, 1.39 µM (inactive); in the experiment on HOP-62 it was 0.855 µM (active); with HOP-92, 1.79 µM (inactive); in the experiment with IGROV-1, 2.03 µM (inactive). The GI50 is 1.67 µM (inactive) in the experiment on K562; 1.47 µM (inactive) with LOX IMVI; 1.9 µM (inactive) with MOLT-4; 2.16 µM (inactive) with NCI-H23; 1.95 µM (inactive) with NCI-H460; 1.69 µM (inactive) with RPMI-8226. Also, the GI50 in the experiment with SK-MEL-28 was 2.01 µM (inactive); in the experiment with SK-MEL-2 it was 1.66 µM (inactive); in the experiment on SNB-19 it was 1.71 µM (inactive); in the experiment on SNB-75, 1.44 µM (inactive); with SW-620, 2.77 µM (inactive); with TK-10, 1.76 µM (inactive). For the same compound, the results for the GI50 with U-251 and in the experiment on UO-31 were 1.35 µM (inactive) and 1.48 µM (inactive), respectively.

Take `N/C(=N\O)N/N=C/c1cc2c(cc1Cl)OCO2`: the GI50 is 37.5 µM (inactive) with CAKI-1; 26 µM (inactive) with HCC 2998; 36.3 µM (inactive) in the experiment with HOP-62; 28.3 µM (inactive) with HOP-92; 43 µM (inactive) with IGROV-1; 26.1 µM (inactive) with K562. The GI50 is 31.5 µM (inactive) with LOX IMVI; 39 µM (inactive) in the experiment on MOLT-4; 58.1 µM (inactive) in the experiment with NCI-H23; 34.1 µM (inactive) with NCI-H460; 24 µM (inactive) in the experiment with RPMI-8226; 64.4 µM (inactive) in the experiment with SK-MEL-28. Moreover, the GI50 in the experiment on SK-MEL-2 was 32.1 µM (inactive); in the experiment on SNB-19, > 25.8 µM (inactive); in the experiment on SNB-75, 30.1 µM (inactive); in the experiment on SW-620 it was 41.8 µM (inactive); with U-251, 34.5 µM (inactive); in the experiment with UO-31, 21.4 µM (inactive).

Consider `O=C(O)C(=C\c1ccc2c(c1)OCO2)/C(=C/c1ccc2c(c1)OCO2)C(=O)O`, for which the GI50 in the experiment with CAKI-1, in the experiment with HCC 2998, in the experiment with HOP-62, in the experiment with HOP-92, in the experiment on IGROV-1 and in the experiment with K562 was > 100 µM (inactive) each time. Moreover, the GI50 in the experiment on LOX IMVI, in the experiment on MOLT-4, with NCI-H23, in the experiment on NCI-H460, in the experiment with RPMI-8226 and in the experiment with SK-MEL-28 was > 100 µM (inactive) each time. Further, the GI50 in the experiment with SK-MEL-2, in the experiment with SNB-19, in the experiment on SNB-75, with SW-620, in the experiment on TK-10 and with U-251 was > 100 µM (inactive) each time. The GI50 in the experiment with UO-31 is > 100 µM (inactive).

Take `COc1cccc(/C=C2/S/C(=N/Nc3nc(C)c(C(C)=O)s3)NC2=O)c1O`: the GI50 in the experiment on ACHN is 22 µM (inactive); with CAKI-1, 47.5 µM (inactive); in the experiment on HCC 2998, 35.6 µM (inactive); with HOP-62, 51.6 µM (inactive); in the experiment with HOP-92, 28.9 µM (inactive); in the experiment on IGROV-1 it was 35.9 µM (inactive). Also, the GI50 in the experiment with K562 is 31.1 µM (inactive); with LOX IMVI it was 31.7 µM (inactive); in the experiment on NCI-H23 it was 35.3 µM (inactive); with NCI-H460, 29.6 µM (inactive); in the experiment on RPMI-8226 it was 27 µM (inactive); in the experiment on SK-MEL-28 it was 39.7 µM (inactive). The GI50 is 21.2 µM (inactive) in the experiment with SK-MEL-2; 38 µM (inactive) with SNB-19; 37.9 µM (inactive) with SNB-75; 29.2 µM (inactive) in the experiment with SW-620; 27.6 µM (inactive) with TK-10; 18.5 µM (inactive) in the experiment on U-251. For the same compound, the GI50 in the experiment on UO-31 is 21.5 µM (inactive).

`Cc1ccc(O)c(C(c2ccc([N+](=O)[O-])cc2)c2cc(C)ccc2O)c1`: the GI50 was 6.1 µM (inactive) in the experiment on ACHN; 15.1 µM (inactive) in the experiment with CAKI-1; 2.99 µM (inactive) in the experiment on HCC 2998; 10.8 µM (inactive) in the experiment with HOP-62; 11.1 µM (inactive) in the experiment with HOP-92; 11 µM (inactive) in the experiment on IGROV-1. Besides, the GI50 in the experiment on K562 is 12.2 µM (inactive); in the experiment on LOX IMVI it was 22.7 µM (inactive); in the experiment on MOLT-4, 5.12 µM (inactive); with NCI-H23 it was 7.93 µM (inactive); in the experiment on RPMI-8226, 10.1 µM (inactive); in the experiment on SK-MEL-28 it was 16.6 µM (inactive). The GI50 in the experiment on SK-MEL-2 is 11.5 µM (inactive); in the experiment with SNB-19 it was 13.1 µM (inactive); with SNB-75, 2.18 µM (inactive); in the experiment with SW-620 it was 13.5 µM (inactive); in the experiment on TK-10, 16.3 µM (inactive); in the experiment on U-251, 16.8 µM (inactive). In addition, the GI50 in the experiment on UO-31 was 3.27 µM (inactive).

As to `O=C1OC(c2ccccc2)=N/C1=C\c1ccccc1`, the GI50 is > 100 µM (inactive) in the experiment with ACHN; > 100 µM (inactive) in the experiment with CAKI-1; > 100 µM (inactive) and 67.9 µM (inactive) in the experiment with HCC 2998; 29.1 µM (inactive) and 25.8 µM (inactive) with HOP-62; > 100 µM (inactive) with HOP-92; 55.5 µM (inactive) and 37.6 µM (inactive) with IGROV-1. Also, the GI50 is 17.1 µM (inactive) and 23.3 µM (inactive) with LOX IMVI; 28.2 µM (inactive) and 47 µM (inactive) in the experiment on MOLT-4; > 100 µM (inactive) in the experiment with NCI-H23; 45.9 µM (inactive) and 43.9 µM (inactive) in the experiment with NCI-H460; 30.5 µM (inactive) and 22.5 µM (inactive) in the experiment with RPMI-8226; > 100 µM (inactive) and 83.9 µM (inactive) in the experiment on SK-MEL-28. Also, the GI50 in the experiment on SK-MEL-2 was 17.8 µM (inactive); with SNB-19, 66.7 µM (inactive) and 40.1 µM (inactive); with SNB-75, 66.8 µM (inactive) and 47.5 µM (inactive); in the experiment on TK-10, 62.7 µM (inactive) and 78.2 µM (inactive); in the experiment on U-251 it was 32.1 µM (inactive) and 35.1 µM (inactive); with UO-31, > 100 µM (inactive).

Turning to `c1ccc(C2N3CCCCC3[C@@H]3c4[nH]c5ccccc5c4CCN23)cc1` (stereo partly specified), the GI50 in the experiment with ACHN was > 100 µM (inactive); in the experiment with CAKI-1, > 100 µM (inactive); with HCC 2998 it was 98.9 µM (inactive); in the experiment on HOP-62 it was > 100 µM (inactive); in the experiment with HOP-92, > 100 µM (inactive); with IGROV-1, > 100 µM (inactive). For the same compound, the GI50 in the experiment on K562 is 41.4 µM (inactive); in the experiment on MOLT-4, 41.2 µM (inactive); in the experiment on NCI-H23, > 100 µM (inactive); in the experiment on NCI-H460, 48.8 µM (inactive); in the experiment on RPMI-8226 it was 36.2 µM (inactive); in the experiment on SK-MEL-28, 28 µM (inactive). Moreover, the GI50 was > 100 µM (inactive) in the experiment on SK-MEL-2; > 100 µM (inactive) in the experiment with SNB-19; 57.9 µM (inactive) in the experiment with SNB-75; 50.4 µM (inactive) in the experiment with SW-620; > 100 µM (inactive) with TK-10; > 100 µM (inactive) in the experiment on U-251. In the experiment with UO-31, the GI50 is 70 µM (inactive).

Consider `CSC1(C)C(=O)Nc2c(OCc3ccccc3)cc([N+](=O)[O-])cc21` (stereo unspecified), for which the GI50 in the experiment on ACHN is > 100 µM (inactive); in the experiment on CAKI-1 it was 75.3 µM (inactive); with HCC 2998, > 100 µM (inactive); with HOP-62, > 100 µM (inactive); with HOP-92, 20 µM (inactive); in the experiment on IGROV-1 it was 54.8 µM (inactive). Moreover, the GI50 in the experiment with K562 is 91 µM (inactive); with LOX IMVI, 53 µM (inactive); in the experiment with MOLT-4, 83.6 µM (inactive); in the experiment with NCI-H23 it was 75.9 µM (inactive); with NCI-H460 it was > 100 µM (inactive); with RPMI-8226, 32.2 µM (inactive). Also, the GI50 in the experiment on SK-MEL-28 is 75.3 µM (inactive); in the experiment on SK-MEL-2 it was 38.7 µM (inactive); with SNB-19, > 100 µM (inactive); in the experiment on SNB-75, 11.9 µM (inactive); in the experiment on SW-620 it was 71.6 µM (inactive); with TK-10, > 100 µM (inactive). Also, the GI50 with U-251 was 19.9 µM (inactive).
